According to ChEMBL document CHEMBL1240398, “Surveillance and correlation of antibiotic prescription and resistance of Gram-negative bacteria in Singaporean hospitals” (2010):

Assays:
Assay type in all cases: functional
Escherichia coli [1] = assay: Antimicrobial activity against Escherichia coli isolate obtained from patient's blood assessed as resistance isolates by disk diffusion method
Klebsiella pneumoniae [2] = assay: Antimicrobial activity against Klebsiella pneumoniae isolate obtained from patient's blood assessed as resistance isolates by disk diffusion method
Escherichia coli [3] = assay: Antimicrobial activity against Escherichia coli clinical isolate assessed as resistance isolates by disk diffusion method
Klebsiella pneumoniae [4] = assay: Antimicrobial activity against Klebsiella pneumoniae clinical isolate assessed as resistance isolates by disk diffusion method
Acinetobacter sp. [5] = assay: Antimicrobial activity against Acinetobacter sp. clinical isolate assessed as resistance isolates by disk diffusion method
Acinetobacter sp. [6] = assay: Antimicrobial activity against Acinetobacter sp. isolate obtained from patient's blood assessed as resistance isolates by disk diffusion method
Pseudomonas aeruginosa [7] = assay: Antimicrobial activity against Pseudomonas aeruginosa clinical isolate assessed as resistance isolates by disk diffusion method
Pseudomonas aeruginosa [8] = assay: Antimicrobial activity against Pseudomonas aeruginosa isolate obtained from patient's blood assessed as resistance isolates by disk diffusion method

Structure (SMILES) | Activity (Escherichia coli [1]) [%] | Activity (Klebsiella pneumoniae [2]) [%] | Activity (Escherichia coli [3]) [%] | Activity (Klebsiella pneumoniae [4]) [%] | Activity (Acinetobacter sp. [5]) [%] | Activity (Acinetobacter sp. [6]) [%] | Activity (Pseudomonas aeruginosa [7]) [%] | Activity (Pseudomonas aeruginosa [8]) [%]
O=C(O)c1cn(C2CC2)c2cc(N3CCNCC3)c(F)cc2c1=O [CIPROFLOXACIN] | 31 | 24 |  |  |  |  |  | 
CO/N=C(\C(=O)N[C@@H]1C(=O)N2C(C(=O)O)=C(CSc3nc(=O)c(O)nn3C)CS[C@H]12)c1csc(N)n1 [CEFTRIAXONE] | 21.7 | 27.4 | 20 | 32.3 |  |  |  | 
C[C@@H](O)[C@H]1C(=O)N2C(C(=O)O)=C(SCCNC=N)C[C@H]12 [IMIPENEM ANHYDROUS] |  |  |  |  | 46.2 | 50 | 7.5 | 12.8
